From patent US20210255193A1, “LYSINE REACTIVE PROBES AND USES THEREOF” (The Scripps Research Institute, priority 2017, published 2021)
Each block holds one compound with its values, some of them ahead of it.

Legend:
Assay in all cases: competitive isoTOP-ABPP
Type in all cases: binding
[1] = target: T1, ISOC2 Isochorismatase domain-containing protein 2, mitochondrial (Homo sapiens, UniProt Q96AB3); set-up: key to isoTOP-ABPP reactivity ratio at lysine Q96AB3_K178: R = MS1 peak area ratio, DMSO (heavy) / compound-treated (light); capped at 20; conditions: for isoTOP-ABPP ratio (R) at liganded lysine Q96AB3_K178 / R value (DMSO/fragment) for probe 1 labeling / isoTOP-ABPP reactivity ratio at lysine Q96AB3_K178: 50 uM, in vitro; for isoTOP-ABPP ratio (R) at liganded lysine Q96AB3_K178: sol, 231; for R value (DMSO/fragment) for probe 1 labeling: Q96AB3_K178; for R value (DMSO/fragment) for probe 1 labeling / isoTOP-ABPP reactivity ratio at lysine Q96AB3_K178: 231 sol
T1 construct: isoTOP-ABPP experiments performed in cell lysates (in vitro); endogenous in cells; host or cells: soluble proteome of human cancer cell lines (MDA-MB-231; Ramos and Jurkat also prepared)
T1 sequence (Q96AB3 1-205): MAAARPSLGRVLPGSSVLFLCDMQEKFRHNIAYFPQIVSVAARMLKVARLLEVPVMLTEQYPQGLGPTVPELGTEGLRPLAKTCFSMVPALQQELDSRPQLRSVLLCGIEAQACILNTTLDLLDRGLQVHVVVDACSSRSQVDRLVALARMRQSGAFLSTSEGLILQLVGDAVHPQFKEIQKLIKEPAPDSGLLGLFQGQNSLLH
Method: (§1) In vitro covalent fragment treatment for isoTOP-ABPP. All compounds were made up as solutions in DMSO (100×) and were used at a final concentration of 50 μM for activated esters and 100 μM for guanidinylating agents. For each profiling sample, 0.5 ml of lysate was treated with 5 μl of the 100× compound stock solution or 5 μl of DMSO. Samples were treated with activated esters for
(§2) STP-alkyne labeling and click chemistry. For concentration-dependent reactivity measurements by isoTOP-ABPP, 0.5 ml proteome aliquots were treated at ambient temperature with 1 mM STP-alkyne 1 (5 μl of 100 mM stock in DMSO) and 0.1 mM STP alkyne 1 (5 μl of 10 mM stock in DMSO), respectively. For competitive isoTOP-ABPP, after in vitro fragment treatment (detailed above), the samples were labeled for 1 h at ambient temperature with 0.1 mM STP-alkyne 1 (5 μl of 10 mM stock in DMSO). Samples were conjugated by copper-mediated azide-alkyne cycloaddition (CuAAC) to either the light (1 mM STP-alkyne or fragment treated) or heavy (0.1 mM STP-alkyne or DMSO treated) TEV tags (10 μl of 5 mM stocks in DMSO, final concentration=100 μM) using tris(2-carboxyethyl)phosphine hydrochloride
(§3) R value calculation and processing. The ratios of light and heavy MS1 peaks for each unique peptide were quantified with a CIMAGE software using default parameters (3 MS1 acquisitions per peak and signal to noise threshold set to 2.5). For reactivity measurements by isoTOP-ABPP, the R value was calculated from the ratio of MS1 peak areas, comparing the 1 mM STP alkyne sample (light TEV tag) with the 0.1 mM STP alkyne sample (heavy TEV tag). For competitive isoTOP-ABPP, the R value was calculated from the ratio of MS1 peak areas, comparing the DMSO treated sample (heavy TEV tag) with the compound treated sample (light TEV tag). […] Ratios for unique peptide entries are calculated for each experiment; overlapping peptides with the same modified lysine (for example, different charge states, MudPIT chromatographic steps or tryptic termini) are grouped together and the median ratio is reported as the final ratio (R). The peptide ratios reported by CIMAGE were further filtered to ensure the removal or correction of low-quality ratios in each individual data set. The quality filters applied were the following: removal of half tryptic peptides; for ratios with high standard deviations from the median (90% of the median or above) the lowest ratio was taken instead of the median; removal of peptides with R=20 and only a single MS2 event triggered during the elution of the parent ion; manual annotation of all the peptides with ratios of 20, removing any peptides with low quality elution profiles that remained after the previous curation steps (only done for competitive isoTOP-ABPP).
(§4) Cross-data processing for fragment screening. For compound treated samples, biological replicates of the same condition were averaged, if the standard deviation was below 60% of the mean; otherwise, for lysines with at least one R value <4 for a particular compound, the lowest value of the ratio set was taken. For lysines, where all R values for a particular compound were ≥4, the average was reported. For peptides containing several possible modified lysines, the lysine with the highest number of quantification events was used for analysis and the remaining, redundant peptides were reported as alternative modification sites. Peptides included in the aggregate dataset (those used for further bioinformatics and statistical analyses) were required to have been quantified in 2 experiments for competitive isoTOP-ABPP. Lysines were categorized as liganded, if they had at least one ratio R≥4 (hit fragments). For liganded lysines with R=20 for all liganding events, lysines were required to have been quantified with R=20 in two separate experiments and were further required to have been quantified with R<20 in one additional experiment.

[2] = target: T2, NLN Neurolysin, mitochondrial (Homo sapiens, UniProt Q9BYT8); conditions: for isoTOP-ABPP ratio (R) at liganded lysine Q9BYT8_K253 / R value (DMSO/fragment) for probe 1 labeling / isoTOP-ABPP reactivity ratio at lysine Q9BYT8_K253: 50 uM, in vitro; for isoTOP-ABPP ratio (R) at liganded lysine Q9BYT8_K253: sol, 231; for R value (DMSO/fragment) for probe 1 labeling: Q9BYT8_K253; for R value (DMSO/fragment) for probe 1 labeling / isoTOP-ABPP reactivity ratio at lysine Q9BYT8_K253: 231 sol
T2 construct: isoTOP-ABPP experiments performed in cell lysates (in vitro); endogenous in cells; host or cells: soluble proteome of human cancer cell lines (MDA-MB-231; Ramos and Jurkat also prepared)
T2 sequence (Q9BYT8 38-704): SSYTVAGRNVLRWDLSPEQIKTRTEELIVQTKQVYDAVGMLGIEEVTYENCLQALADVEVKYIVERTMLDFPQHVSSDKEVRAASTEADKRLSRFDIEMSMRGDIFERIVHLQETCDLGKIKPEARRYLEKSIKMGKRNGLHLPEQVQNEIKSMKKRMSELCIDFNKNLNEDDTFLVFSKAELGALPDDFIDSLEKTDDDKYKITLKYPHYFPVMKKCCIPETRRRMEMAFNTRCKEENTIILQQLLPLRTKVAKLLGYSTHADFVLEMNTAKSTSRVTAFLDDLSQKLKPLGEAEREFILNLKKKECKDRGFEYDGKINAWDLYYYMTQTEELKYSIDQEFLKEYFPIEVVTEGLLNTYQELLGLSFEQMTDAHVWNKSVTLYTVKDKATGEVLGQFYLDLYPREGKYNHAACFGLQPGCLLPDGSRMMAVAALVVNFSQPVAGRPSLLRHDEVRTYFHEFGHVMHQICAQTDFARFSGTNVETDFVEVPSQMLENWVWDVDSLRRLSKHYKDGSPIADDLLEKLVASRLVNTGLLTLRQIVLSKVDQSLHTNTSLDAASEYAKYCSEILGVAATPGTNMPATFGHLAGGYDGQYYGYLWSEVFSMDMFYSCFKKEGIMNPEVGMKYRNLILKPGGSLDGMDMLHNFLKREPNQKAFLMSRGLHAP
Summary of the method: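 Cell lysate treated in vitro with fragments (50 μM activated esters, 100 μM guanidinylating agents) or DMSO, labelled 1 h at ambient temperature with 0.1 mM STP-alkyne, CuAAC-tagged with light/heavy TEV tags, analysed by MS. R = DMSO/compound MS1 peak-area ratio; lysines with R≥4 called liganded.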

ADK Adenosine kinase = target: T3, ADK Adenosine kinase (Homo sapiens, UniProt P55263); set-up: key to isoTOP-ABPP reactivity ratio at lysine P55263_K88: R = MS1 peak area ratio, DMSO (heavy) / compound-treated (light); conditions: for isoTOP-ABPP ratio (R) at liganded lysine P55263_K88 / R value (DMSO/fragment) for probe 1 labeling / isoTOP-ABPP reactivity ratio at lysine P55263_K88: 50 uM, in vitro; for isoTOP-ABPP ratio (R) at liganded lysine P55263_K88: sol, 231; for R value (DMSO/fragment) for probe 1 labeling: P55263_K88; for R value (DMSO/fragment) for probe 1 labeling / isoTOP-ABPP reactivity ratio at lysine P55263_K88: 231 sol
T3 construct: isoTOP-ABPP experiments performed in cell lysates (in vitro); endogenous in cells; host or cells: soluble proteome of human cancer cell lines (MDA-MB-231, Ramos, Jurkat)
T3 sequence (P55263 whole entry, the tested form may be a part): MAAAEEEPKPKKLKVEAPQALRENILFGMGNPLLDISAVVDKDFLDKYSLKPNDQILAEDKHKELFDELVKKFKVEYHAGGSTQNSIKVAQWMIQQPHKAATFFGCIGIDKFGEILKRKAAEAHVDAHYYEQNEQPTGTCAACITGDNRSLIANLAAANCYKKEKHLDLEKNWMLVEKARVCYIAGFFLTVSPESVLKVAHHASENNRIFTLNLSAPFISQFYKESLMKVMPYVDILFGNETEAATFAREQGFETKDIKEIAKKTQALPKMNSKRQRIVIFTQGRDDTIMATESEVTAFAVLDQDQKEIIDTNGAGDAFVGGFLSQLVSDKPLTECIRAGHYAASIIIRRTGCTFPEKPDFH
Method: as §1, §2, §3, §4

[3] = target: T4, PFKP 6-phosphofructokinase type C (Homo sapiens, UniProt Q01813); set-up: key to isoTOP-ABPP reactivity ratio at lysine Q01813_K688: R = MS1 peak area ratio, DMSO (heavy) / compound-treated (light); conditions: for isoTOP-ABPP ratio (R) at liganded lysine Q01813_K688 / R value (DMSO/fragment) for probe 1 labeling / isoTOP-ABPP reactivity ratio at lysine Q01813_K688: 50 uM, in vitro; for isoTOP-ABPP ratio (R) at liganded lysine Q01813_K688: sol, 231; for R value (DMSO/fragment) for probe 1 labeling: Q01813_K688; for R value (DMSO/fragment) for probe 1 labeling / isoTOP-ABPP reactivity ratio at lysine Q01813_K688: 231 sol
T4 construct: isoTOP-ABPP experiments performed in cell lysates (in vitro); endogenous in cells
T4 sequence (Q01813 1-784): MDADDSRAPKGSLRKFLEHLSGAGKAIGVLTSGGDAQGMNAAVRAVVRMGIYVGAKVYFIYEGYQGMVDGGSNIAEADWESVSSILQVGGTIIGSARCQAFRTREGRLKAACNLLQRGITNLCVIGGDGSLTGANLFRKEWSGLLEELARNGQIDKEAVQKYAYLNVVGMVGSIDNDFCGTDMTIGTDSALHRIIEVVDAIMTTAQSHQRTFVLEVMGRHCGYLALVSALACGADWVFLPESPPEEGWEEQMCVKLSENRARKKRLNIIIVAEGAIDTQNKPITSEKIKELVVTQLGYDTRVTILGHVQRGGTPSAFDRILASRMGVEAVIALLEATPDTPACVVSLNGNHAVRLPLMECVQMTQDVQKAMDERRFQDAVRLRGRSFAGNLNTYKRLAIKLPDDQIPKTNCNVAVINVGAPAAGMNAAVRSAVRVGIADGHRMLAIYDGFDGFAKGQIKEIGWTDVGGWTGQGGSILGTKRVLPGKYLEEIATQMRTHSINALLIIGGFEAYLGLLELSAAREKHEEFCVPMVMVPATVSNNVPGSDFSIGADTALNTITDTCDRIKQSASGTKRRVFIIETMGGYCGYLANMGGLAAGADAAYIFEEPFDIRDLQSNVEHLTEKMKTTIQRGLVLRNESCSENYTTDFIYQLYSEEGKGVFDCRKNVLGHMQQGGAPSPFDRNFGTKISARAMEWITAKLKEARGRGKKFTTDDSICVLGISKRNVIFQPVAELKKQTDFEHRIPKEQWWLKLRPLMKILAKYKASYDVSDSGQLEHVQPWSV
Method: as §1, §2, §3, §4

Compound: O=C(Oc1ccc([N+](=O)[O-])cc1[N+](=O)[O-])C(c1ccccc1)(c1ccccc1)c1ccccc1 [fragment 42, 2,4-Dinitrophenyl 2,2,2-triphenylacetate]
isoTOP-ABPP ratio (R) at liganded lysine Q96AB3_K178 [1]: 1.0
isoTOP-ABPP ratio (R) at liganded lysine Q9BYT8_K253 [2]: 0.8
isoTOP-ABPP ratio (R) at liganded lysine P55263_K88 (ADK Adenosine kinase): 1.0
isoTOP-ABPP ratio (R) at liganded lysine Q01813_K688 [3]: 1.0

R value (DMSO/fragment) for probe 1 labeling [1]: 1.0
R value (DMSO/fragment) for probe 1 labeling [2]: 0.7
R value (DMSO/fragment) for probe 1 labeling (ADK Adenosine kinase): 0.8
R value (DMSO/fragment) for probe 1 labeling [3]: 1.1
Compound: O=C(Oc1c(F)c(F)c(F)c(F)c1F)c1cc(C(F)(F)F)cc(C(F)(F)F)c1 [fragment 21, Pentafluorophenyl 3,5-bis(trifluoromethyl)benzoate]

Compound: Cn1cc(CC(=O)Oc2ccc([N+](=O)[O-])cc2[N+](=O)[O-])c2ccccc21 [fragment 32, 2,4-Dinitrophenyl 2-(1-methyl-1H-indol-3-yl)acetate]
isoTOP-ABPP reactivity ratio at lysine Q96AB3_K178 [1]: 1.1
isoTOP-ABPP reactivity ratio at lysine Q9BYT8_K253 [2]: 1.7
isoTOP-ABPP reactivity ratio at lysine P55263_K88 (ADK Adenosine kinase): 1.4
isoTOP-ABPP reactivity ratio at lysine Q01813_K688 [3]: 12.6

Compound: O=C(CCc1cn(-c2ccccc2)nc1-c1ccccc1)Oc1ccc([N+](=O)[O-])cc1[N+](=O)[O-] [fragment 29, 2,4-Dinitrophenyl 3-(1,3-diphenyl-1H-pyrazol-4-yl)propanoate]
isoTOP-ABPP reactivity ratio at lysine Q96AB3_K178 [1]: 1.7
isoTOP-ABPP reactivity ratio at lysine Q9BYT8_K253 [2]: 1.0
isoTOP-ABPP reactivity ratio at lysine P55263_K88 (ADK Adenosine kinase): 1.0
isoTOP-ABPP reactivity ratio at lysine Q01813_K688 [3]: 12.8

Compound: O=C(CC12CC3CC(CC(C3)C1)C2)Oc1ccc([N+](=O)[O-])cc1[N+](=O)[O-] [fragment 38, 2,4-Dinitrophenyl 2-(adamantan-1-yl)acetate]
isoTOP-ABPP ratio (R) at liganded lysine Q96AB3_K178 [1]: 0.9
isoTOP-ABPP ratio (R) at liganded lysine Q9BYT8_K253 [2]: 0.8
isoTOP-ABPP ratio (R) at liganded lysine P55263_K88 (ADK Adenosine kinase): 0.9
isoTOP-ABPP ratio (R) at liganded lysine Q01813_K688 [3]: 4.1

isoTOP-ABPP ratio, lysine Q96AB3_K178 ([1]; 100 uM_231_sol_in vitro): 1.1
isoTOP-ABPP ratio, lysine Q9BYT8_K253 ([2]; 100 uM_231_sol_in vitro): 1.2
isoTOP-ABPP ratio, lysine P55263_K88 (ADK Adenosine kinase; 100 uM_231_sol_in vitro): 1.0
isoTOP-ABPP ratio, lysine Q01813_K688 ([3]; 100 uM_231_sol_in vitro): 18.2
Compound: CC(C)(C)OC(=O)N=C(NC(=O)OC(C)(C)C)n1cccn1 [fragment 50, reference compound]

R value (DMSO/fragment) for probe 1 labeling [1]: 1.2
R value (DMSO/fragment) for probe 1 labeling [2]: 1.0
R value (DMSO/fragment) for probe 1 labeling (ADK Adenosine kinase): 0.8
R value (DMSO/fragment) for probe 1 labeling [3]: 1.5
Compound: O=C(CCc1cn(-c2ccccc2)nc1-c1ccccc1)Oc1c(F)c(F)c(F)c(F)c1F [fragment 19, Pentafluorophenyl 3-(1,3-diphenyl-1H-pyrazol-4-yl)propanoate]
